# Columns and labels:
# In vivo PK assay = test: In vivo PK assay; set-up: species or system Sprague-Dawley rats; conditions: rats
# Description: All animal experiments in this study have been approved by the Institutional Animal Care and Treatment Committee of Sichuan University in China and were carried out in accordance with the approved guidelines. Sprague-Dawley rats (weight 180–200 g, Beijing HJF bioscience, Beijing, China) were used in this experiment and maintained in a specific-pathogen-free (SPF) condition facility. RK-019 was dissolve in ethanol first, followed by mixed with Kolliphor EL, then filled with saline to the calculated volume. The formula was 12.5% ethanol, 12.5% Kolliphor EL, and 75% saline. RK-019 was administrated via i. v. 3 mg/kg or p. o. 30 mg/kg. After 5, 10, 15, 30, 60, 120, 240, 360, 600, and 1,440 min of administration, the blood samples were collected. Plasma fraction was obtained by centrifuged blood, then deproteinized with methanol containing an internal standard. The compound concentrations of the target compound in the supernatant were measured by liquid chromatography–mass spectrometry/mass spectrometry (LC-MS/MS).
# Yes(h) = biological target: T1, Yes(h) (Homo sapiens, UniProt P07947); test: Kinase selectivity panel; assay type: biochemical; conditions: read-out: Inhibition(%) @ 1 µM RK-019
# T1 construct: purchased Eurofins Discovery Services (KinaseProfiler)
# Description: (§1) Median-inhibitory concentration (IC50) and inhibition ratio of kinases by RK-019 was assessed by Eurofins Discovery Services (Dundee, United Kingdom) using the ATP-site competition binding assay in vitro. Firstly, gradient concentration of RK-019 against FGFRs, including FGFR1, FGFR2, FGFR3, and FGFR4, were tested. IC50 value was calculate by the GraphPad Prism software (v8.4.3, GraphPad Software, California, United States). Then, to measure the selectivity prolife of RK-019, a panel of 422 recombinant human kinases was screened at a concentration of 1 µM RK-019. Kinase MAP was drawn by webtools from Cell Signaling Technology, Inc. (www.cellsignal.com).
# B-Raf(V599E)(h) = biological target: T2, B-Raf(V599E)(h) (Homo sapiens, UniProt P15056, V600E); test: Kinase selectivity panel; assay type: biochemical; conditions: read-out: Inhibition(%) @ 1 µM RK-019
# T2 construct: purchased Eurofins Discovery Services (KinaseProfiler)
# T2 sequence (P15056 416-766 V600E limits assumed): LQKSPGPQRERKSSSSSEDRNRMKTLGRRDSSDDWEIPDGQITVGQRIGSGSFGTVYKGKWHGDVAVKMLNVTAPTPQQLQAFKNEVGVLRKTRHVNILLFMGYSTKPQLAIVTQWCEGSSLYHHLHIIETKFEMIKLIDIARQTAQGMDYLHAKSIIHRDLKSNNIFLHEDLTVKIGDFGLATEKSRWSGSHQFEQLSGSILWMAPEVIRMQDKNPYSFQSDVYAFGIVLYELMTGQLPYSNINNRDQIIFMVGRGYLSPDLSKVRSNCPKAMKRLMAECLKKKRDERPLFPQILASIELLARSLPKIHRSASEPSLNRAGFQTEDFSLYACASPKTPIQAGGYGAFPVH
# Description: as §1
# NEK11(h) = biological target: T3, NEK11(h) (Homo sapiens, UniProt Q8NG66); test: Kinase selectivity panel; assay type: biochemical; conditions: read-out: Inhibition(%) @ 1 µM RK-019
# T3 construct: purchased Eurofins Discovery Services (KinaseProfiler)
# T3 sequence (Q8NG66 whole entry): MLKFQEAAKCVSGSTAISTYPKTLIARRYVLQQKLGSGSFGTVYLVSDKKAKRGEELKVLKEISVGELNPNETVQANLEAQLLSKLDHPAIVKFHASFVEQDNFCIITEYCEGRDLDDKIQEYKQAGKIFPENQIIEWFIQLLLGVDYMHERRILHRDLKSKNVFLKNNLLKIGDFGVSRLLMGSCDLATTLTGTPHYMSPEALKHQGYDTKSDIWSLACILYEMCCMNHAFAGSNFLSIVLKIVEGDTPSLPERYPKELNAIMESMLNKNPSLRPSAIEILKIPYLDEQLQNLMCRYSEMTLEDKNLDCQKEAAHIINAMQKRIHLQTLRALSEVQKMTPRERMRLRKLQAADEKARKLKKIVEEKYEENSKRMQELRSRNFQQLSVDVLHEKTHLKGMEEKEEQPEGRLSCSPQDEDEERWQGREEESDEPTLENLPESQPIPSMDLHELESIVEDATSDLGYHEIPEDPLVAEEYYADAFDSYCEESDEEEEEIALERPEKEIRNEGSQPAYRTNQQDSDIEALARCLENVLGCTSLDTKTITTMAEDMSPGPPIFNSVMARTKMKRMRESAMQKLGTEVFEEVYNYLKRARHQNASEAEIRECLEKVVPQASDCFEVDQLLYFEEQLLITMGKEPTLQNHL
# Description: as §1
# DYRK1A(h) = biological target: T4, DYRK1A(h) (Homo sapiens, UniProt Q13627); test: Kinase selectivity panel; assay type: biochemical; conditions: read-out: Inhibition(%) @ 1 µM RK-019
# T4 construct: purchased Eurofins Discovery Services (KinaseProfiler)
# Description: as §1
# EphA5(h) = biological target: T5, EphA5(h) (Homo sapiens, UniProt P54756); test: Kinase selectivity panel; assay type: biochemical; conditions: read-out: Inhibition(%) @ 1 µM RK-019
# T5 construct: purchased Eurofins Discovery Services (KinaseProfiler)
# Description: as §1
# CDKL3(h) = biological target: T6, CDKL3(h) (Homo sapiens, UniProt Q8IVW4); test: Kinase selectivity panel; assay type: biochemical; conditions: read-out: Inhibition(%) @ 1 µM RK-019
# T6 construct: purchased Eurofins Discovery Services (KinaseProfiler)
# Description: as §1
# CLK4(h) = biological target: T7, CLK4(h) (Homo sapiens, UniProt Q9HAZ1); test: Kinase selectivity panel; assay type: biochemical; conditions: read-out: Inhibition(%) @ 1 µM RK-019
# T7 construct: purchased Eurofins Discovery Services (KinaseProfiler)
# Description: as §1
# BTK(R28H)(h) = biological target: T8, BTK(R28H)(h) (Homo sapiens, UniProt Q06187, R28H); test: Kinase selectivity panel; assay type: biochemical; conditions: read-out: Inhibition(%) @ 1 µM RK-019
# T8 construct: purchased Eurofins Discovery Services (KinaseProfiler)
# T8 sequence (Q06187 whole entry R28H): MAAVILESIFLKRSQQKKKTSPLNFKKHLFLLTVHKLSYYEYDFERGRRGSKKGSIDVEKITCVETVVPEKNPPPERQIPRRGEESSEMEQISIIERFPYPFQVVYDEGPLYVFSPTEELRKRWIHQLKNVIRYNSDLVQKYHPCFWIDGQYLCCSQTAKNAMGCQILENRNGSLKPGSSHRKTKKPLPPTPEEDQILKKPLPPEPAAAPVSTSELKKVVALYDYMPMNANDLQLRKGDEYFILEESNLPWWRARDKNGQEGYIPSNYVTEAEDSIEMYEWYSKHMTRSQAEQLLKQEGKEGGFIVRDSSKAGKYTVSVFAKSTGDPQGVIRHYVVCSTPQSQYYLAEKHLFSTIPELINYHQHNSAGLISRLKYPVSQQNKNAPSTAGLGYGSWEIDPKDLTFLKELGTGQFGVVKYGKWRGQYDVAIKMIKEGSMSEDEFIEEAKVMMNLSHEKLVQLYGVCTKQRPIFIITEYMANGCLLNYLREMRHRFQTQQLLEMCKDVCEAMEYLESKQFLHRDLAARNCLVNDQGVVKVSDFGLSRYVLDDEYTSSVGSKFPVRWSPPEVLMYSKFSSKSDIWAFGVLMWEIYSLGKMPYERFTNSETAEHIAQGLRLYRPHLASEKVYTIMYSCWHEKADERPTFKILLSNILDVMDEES
# Description: as §1
# Aurora-B(h) = biological target: T9, Aurora-B(h) (Homo sapiens, UniProt Q96GD4); test: Kinase selectivity panel; assay type: biochemical; conditions: read-out: Inhibition(%) @ 1 µM RK-019
# T9 construct: purchased Eurofins Discovery Services (KinaseProfiler)
# T9 sequence (Q96GD4 whole entry): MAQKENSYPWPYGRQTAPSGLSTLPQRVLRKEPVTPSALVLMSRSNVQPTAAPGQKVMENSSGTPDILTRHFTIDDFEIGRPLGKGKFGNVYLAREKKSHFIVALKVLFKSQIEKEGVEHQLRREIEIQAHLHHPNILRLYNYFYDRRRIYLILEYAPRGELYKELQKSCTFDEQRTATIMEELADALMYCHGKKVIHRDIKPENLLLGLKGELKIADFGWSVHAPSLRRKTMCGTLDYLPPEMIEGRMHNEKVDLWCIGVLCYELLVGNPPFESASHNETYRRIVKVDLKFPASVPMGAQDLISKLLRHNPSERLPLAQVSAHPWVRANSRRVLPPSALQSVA
# Description: as §1
# PhKγ1(h) = biological target: T10, PhKγ1(h) (Homo sapiens, UniProt Q16816); test: Kinase selectivity panel; assay type: biochemical; conditions: read-out: Inhibition(%) @ 1 µM RK-019
# T10 construct: purchased Eurofins Discovery Services (KinaseProfiler)
# Description: as §1
# PAK3(h) = biological target: T11, PAK3(h) (Homo sapiens, UniProt O75914); test: Kinase selectivity panel; assay type: biochemical; conditions: read-out: Inhibition(%) @ 1 µM RK-019
# T11 construct: purchased Eurofins Discovery Services (KinaseProfiler)
# Description: as §1
# CDK13/cyclinK(h) = biological target: T12, CDK13/cyclinK(h) (Homo sapiens, UniProt Q14004); test: Kinase selectivity panel; assay type: biochemical; conditions: read-out: Inhibition(%) @ 1 µM RK-019
# T12 construct: purchased Eurofins Discovery Services (KinaseProfiler)
# Description: as §1
# p70S6K(h) = biological target: T13, p70S6K(h) (Homo sapiens, UniProt P23443); test: Kinase selectivity panel; assay type: biochemical; conditions: read-out: Inhibition(%) @ 1 µM RK-019
# T13 construct: purchased Eurofins Discovery Services (KinaseProfiler)
# T13 sequence (P23443 whole entry): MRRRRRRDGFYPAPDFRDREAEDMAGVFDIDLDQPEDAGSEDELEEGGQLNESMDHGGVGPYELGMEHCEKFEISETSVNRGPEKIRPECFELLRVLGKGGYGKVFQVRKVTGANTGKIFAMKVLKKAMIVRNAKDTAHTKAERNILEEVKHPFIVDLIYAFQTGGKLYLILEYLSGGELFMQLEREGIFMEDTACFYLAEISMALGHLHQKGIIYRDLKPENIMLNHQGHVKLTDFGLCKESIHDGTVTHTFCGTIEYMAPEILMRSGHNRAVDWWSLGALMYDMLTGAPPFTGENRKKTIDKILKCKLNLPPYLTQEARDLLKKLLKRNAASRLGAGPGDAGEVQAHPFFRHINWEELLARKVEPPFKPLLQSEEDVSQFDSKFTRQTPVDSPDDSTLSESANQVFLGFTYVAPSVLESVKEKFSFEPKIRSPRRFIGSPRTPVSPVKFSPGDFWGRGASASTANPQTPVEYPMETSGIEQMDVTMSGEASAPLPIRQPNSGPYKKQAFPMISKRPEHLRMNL
# Description: as §1
# IKKε(h) = biological target: T14, IKKε(h) (Homo sapiens, UniProt Q14164); test: Kinase selectivity panel; assay type: biochemical; conditions: read-out: Inhibition(%) @ 1 µM RK-019
# T14 construct: purchased Eurofins Discovery Services (KinaseProfiler)
# T14 sequence (Q14164 whole entry): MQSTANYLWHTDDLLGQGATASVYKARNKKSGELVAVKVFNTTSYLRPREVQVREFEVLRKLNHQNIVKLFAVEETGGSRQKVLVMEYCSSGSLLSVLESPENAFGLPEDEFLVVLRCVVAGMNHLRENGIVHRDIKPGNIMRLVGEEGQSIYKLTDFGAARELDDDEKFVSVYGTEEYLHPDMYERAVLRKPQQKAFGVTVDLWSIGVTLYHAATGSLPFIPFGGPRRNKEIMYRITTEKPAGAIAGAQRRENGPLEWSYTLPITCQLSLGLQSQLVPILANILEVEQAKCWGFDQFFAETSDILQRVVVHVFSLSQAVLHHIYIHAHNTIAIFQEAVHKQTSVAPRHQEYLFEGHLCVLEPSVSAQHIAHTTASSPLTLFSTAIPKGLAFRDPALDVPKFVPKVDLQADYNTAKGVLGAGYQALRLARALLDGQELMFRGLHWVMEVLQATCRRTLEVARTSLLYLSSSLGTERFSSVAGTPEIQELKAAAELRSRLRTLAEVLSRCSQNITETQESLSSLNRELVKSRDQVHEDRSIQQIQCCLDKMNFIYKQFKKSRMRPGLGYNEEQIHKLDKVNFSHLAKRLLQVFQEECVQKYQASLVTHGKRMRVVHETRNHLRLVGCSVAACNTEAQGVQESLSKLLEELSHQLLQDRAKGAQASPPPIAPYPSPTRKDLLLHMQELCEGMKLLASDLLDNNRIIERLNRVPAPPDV
# Description: as §1
# PKCδ(h) = biological target: T15, PKCδ(h) (Homo sapiens, UniProt Q05655); test: Kinase selectivity panel; assay type: biochemical; conditions: read-out: Inhibition(%) @ 1 µM RK-019
# T15 construct: purchased Eurofins Discovery Services (KinaseProfiler)
# T15 sequence (Q05655 whole entry): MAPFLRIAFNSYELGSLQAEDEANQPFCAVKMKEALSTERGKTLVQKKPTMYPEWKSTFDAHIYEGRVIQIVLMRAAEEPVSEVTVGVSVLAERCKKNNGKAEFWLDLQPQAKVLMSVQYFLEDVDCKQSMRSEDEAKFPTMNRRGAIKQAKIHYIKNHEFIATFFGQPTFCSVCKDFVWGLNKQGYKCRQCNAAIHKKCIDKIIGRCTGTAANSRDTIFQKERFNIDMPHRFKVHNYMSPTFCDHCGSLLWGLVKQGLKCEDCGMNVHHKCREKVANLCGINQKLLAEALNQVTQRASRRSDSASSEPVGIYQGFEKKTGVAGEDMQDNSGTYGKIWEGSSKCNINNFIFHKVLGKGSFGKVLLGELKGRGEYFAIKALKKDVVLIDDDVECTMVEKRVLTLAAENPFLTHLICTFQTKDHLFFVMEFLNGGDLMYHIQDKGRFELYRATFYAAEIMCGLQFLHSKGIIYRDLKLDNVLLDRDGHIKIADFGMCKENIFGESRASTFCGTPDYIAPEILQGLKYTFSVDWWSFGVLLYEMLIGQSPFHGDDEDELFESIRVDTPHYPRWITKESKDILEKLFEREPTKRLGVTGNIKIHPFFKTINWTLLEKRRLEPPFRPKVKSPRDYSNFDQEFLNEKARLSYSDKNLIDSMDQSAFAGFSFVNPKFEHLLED
# Description: as §1
# CaMKIIγ(h) = biological target: T16, CaMKIIγ(h) (Homo sapiens, UniProt Q13555); test: Kinase selectivity panel; assay type: biochemical; conditions: read-out: Inhibition(%) @ 1 µM RK-019
# T16 construct: purchased Eurofins Discovery Services (KinaseProfiler)
# Description: as §1
# Pim-3(h) = biological target: T17, Pim-3(h) (Homo sapiens, UniProt Q86V86); test: Kinase selectivity panel; assay type: biochemical; conditions: read-out: Inhibition(%) @ 1 µM RK-019
# T17 construct: purchased Eurofins Discovery Services (KinaseProfiler)
# Description: as §1
# PTK5(h) = biological target: T18, PTK5(h) (Homo sapiens, UniProt P42685); test: Kinase selectivity panel; assay type: biochemical; conditions: read-out: Inhibition(%) @ 1 µM RK-019
# T18 construct: purchased Eurofins Discovery Services (KinaseProfiler)
# T18 sequence (P42685 whole entry): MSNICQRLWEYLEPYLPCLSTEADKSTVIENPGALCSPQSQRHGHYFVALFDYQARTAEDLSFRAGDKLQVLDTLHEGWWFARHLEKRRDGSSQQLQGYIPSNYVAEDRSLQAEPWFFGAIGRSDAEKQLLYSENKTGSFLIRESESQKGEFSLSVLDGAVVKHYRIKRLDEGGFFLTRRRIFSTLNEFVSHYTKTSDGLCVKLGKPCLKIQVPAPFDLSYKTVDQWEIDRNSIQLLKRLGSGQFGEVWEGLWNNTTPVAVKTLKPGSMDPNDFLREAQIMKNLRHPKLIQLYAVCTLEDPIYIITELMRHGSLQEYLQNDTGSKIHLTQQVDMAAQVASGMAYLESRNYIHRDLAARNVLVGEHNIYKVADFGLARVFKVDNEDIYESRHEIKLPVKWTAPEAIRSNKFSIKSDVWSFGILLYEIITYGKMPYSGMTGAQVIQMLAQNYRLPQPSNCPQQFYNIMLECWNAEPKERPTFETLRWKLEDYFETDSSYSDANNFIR
# Description: as §1
# KATO III cells = test: Cell viability assay (MTT); assay type: cell-based; conditions: Homo sapiens, mean ± SD
# Description: (§2) For suspension and mixed suspension adherent cells, the cells were seeded in 96-well plate with different cell density, 0.5×10^4 per well for 96 h treatment, 1×10^4 per well for 72 h treatment, 2×10^4 per well for 48 h treatment, and 5×10^4 per well for 24 h treatment. Different doses of RK-019 were treated as soon as the cell seeded in 96-well plates. For adherent cells, the cells were seeded in a 96-well plate with 3×10^3 per well and cultured overnight followed by administrated different doses of RK-019. After indicated time treatment, MTT solution at a final concentration of 0.5 mg/ml was added and incubated 2–4 h at 37°C. Formazan formed by the living cells was dissolved with DMSO and the absorbance was measured using a microplate spectrophotometer (MultiskanFC, ThermoFisher, Waltham, MA, United States) at 570 nm. IC50 value of RK-019 was calculated by the Graphpad Prism software.
# (§3) All data were analyzed by the GraphPad Prism 8.4.3 (GraphPad Software, California, United States), and was shown as mean value ±SD or SEM, details will be illustrated in the figure legends. Dose-effect curve analysis (IC50 calculation) was performed by the Graphpad Prism software. […] The statistically significant p values were calculated by student’s t-test or two-way ANOVA and were shown in graphics which were labeled as follows: *p < 0.05; **p < 0.01; ***p < 0.001.
# SNU-16 cells = test: Cell viability assay (MTT); assay type: cell-based; conditions: Homo sapiens; SNU-16, mean ± SD
# Description: as §2, §3
# [1] = Sprague-Dawley, rat, plasma, iv, 3 mg/kg i.v
# [2] = Sprague-Dawley, rat, plasma, po, 30 mg/kg p.o
smiles,measurement,setting,value
"COc1cc(OC)cc(N(CCN[C@H](C)CO)c2ccc3ncc(-c4cnn(C)c4)c(=O)n3c2)c1 [RK-019, (R)-7-((3,5-dimethoxyphenyl) (2-((1-hydroxypropan-2-yl)amino)ethyl)amino)-3-(1-methyl-1H-pyrazol-4-yl)-4H-pyrido [1,2-a]pyrimidin-4-one]",AUC(0-t),In vivo PK assay; [1],763 ± 50.8 ng·h/mL
same,Cmax,In vivo PK assay; [1],461 ± 47.8 ng/mL
same,MRT,In vivo PK assay; [1],1.64 ± 0.19 h
same,half-life,In vivo PK assay; [1],94.8 ± 17.4 min
same,AUC(0-t),In vivo PK assay; [2],1450 ng·h/mL
same,Cmax,In vivo PK assay; [2],235 ± 77.8 ng/mL
same,MRT,In vivo PK assay; [2],4.49 ± 1.19 h
same,Tmax,In vivo PK assay; [2],2.67 ± 2.89 h
same,half-life,In vivo PK assay; [2],170 ± 22.2 min
same,F% (oral relative bioavailability),In vivo PK assay; 30 mg/kg p.o,19.00%
same,activity at 1 µM,Yes(h),29%
same,activity at 1 µM,B-Raf(V599E)(h),70%
same,activity at 1 µM,NEK11(h),118%
same,activity at 1 µM,DYRK1A(h),101%
same,activity at 1 µM,EphA5(h),45%
same,activity at 1 µM,CDKL3(h),102%
same,activity at 1 µM,CLK4(h),89%
same,activity at 1 µM,BTK(R28H)(h),83%
same,activity at 1 µM,Aurora-B(h),87%
same,activity at 1 µM,PhKγ1(h),93%
same,activity at 1 µM,PAK3(h),97%
same,activity at 1 µM,CDK13/cyclinK(h),109%
same,activity at 1 µM,p70S6K(h),119%
same,activity at 1 µM,IKKε(h),107%
same,activity at 1 µM,PKCδ(h),99%
same,activity at 1 µM,CaMKIIγ(h),106%
same,activity at 1 µM,Pim-3(h),114%
same,activity at 1 µM,PTK5(h),107%
same,IC50,KATO III cells,5.45 ± 5.3 nM
same,IC50,SNU-16 cells,3.96 ± 4.4 nM

# — PMC9532703, “A novel small molecule RK-019 inhibits FGFR2-amplification gastric cancer cell proliferation and induces apoptosis in vitro and in vivo” (Frontiers in Pharmacology, 2022)
